Measurements as given in PMC5587682 (Scientific Reports, 2017).
Residues, ends and D or L forms follow the SMILES beside them.

Test system: A/Parma/24/09 H1N1 oseltamivir-resistant virus
Assay type: cell-based, Influenza A virus
Conditions: turkey erythrocytes

Compound | HI titer [nM]
CC(C)C[C@H](NC(=O)[C@@H](NC(=O)[C@H](CS)NC(=O)[C@H](CC(=O)O)NC(=O)[C@H](CC(C)C)NC(=O)[C@@H](N)CO)C(C)C)C(=O)N[C@@H](CCCNC(=N)N)C(=O)N1CCC[C@H]1C(N)=O [Peptide 13, SLDCVLRP] (H-SLDCVLRP-NH2) | 0.00015
SKHSSLDCVLRPTEGY [Peptide 12, bLf C-lobe fragment 418–433] | 0.1
CC(C)C[C@H](NC(=O)[C@H](CO)NC(=O)[C@H](CO)NC(=O)[C@H](Cc1c[nH]cn1)NC(=O)[C@H](CCCCN)NC(=O)[C@@H](N)CO)C(=O)N[C@@H](CC(=O)O)C(=O)N[C@@H](CS)C(=O)O [Peptide 16, SKHSSLDC] (H-SKHSSLDC-OH; N-terminus and C-terminus assumed) | 12
C[C@@H](O)[C@H](NC(=O)[C@H](CCC(=O)O)NC(=O)[C@H](CO)NC(=O)[C@@H](N)CCCCN)C(=O)N[C@@H](CCCCN)C(=O)N[C@@H](CC(N)=O)C(=O)O [Peptide 8, KSETKN] (H-KSETKN-OH; N-terminus and C-terminus assumed) | 0.3
NRKSSKHSSLDCVLRP [Peptide 11, bLf C-lobe fragment 414–429] | 12
NRKSSKHSSLDCVLRPTEGY [Peptide 10, bLf C-lobe fragment 414–433] | 6
C[C@H](NC(=O)[C@H](Cc1c[nH]c2ccccc12)NC(=O)[C@H](CC(=O)O)NC(=O)[C@H](C)NC(=O)[C@@H](NC(=O)[C@H](CO)NC(=O)[C@H](CCC(=O)O)NC(=O)CNC(=O)[C@H](CC(N)=O)NC(=O)[C@@H](N)[C@@H](C)O)[C@@H](C)O)C(=O)N[C@@H](CCCCN)C(=O)N[C@@H](CC(N)=O)C(N)=O [Peptide 6, TNGESTADWAKN] (H-TNGESTADWAKN-NH2; N-terminus and C-terminus assumed) | 1.5
